Experimental data published in ChEMBL document CHEMBL4842376, “Design, synthesis and biological evaluation of novel hybrids targeting mTOR and HDACs for potential treatment of hepatocellular carcinoma” (Eur J Med Chem, 2021).
Activity calls are given as the source filed them. No cut-off for these calls is given here.

Assays:
[1] = system: MCF7; assay: cells; format: functional, cell-based; settings: Homo sapiens, MCF7, 72 h
Description: Antiproliferative activity against human MCF7 cells assessed as inhibition of cell growth measured after 72 hrs by MTT assay

[2] = system: HepG2; assay: Induction of apoptosis in human HepG2 cells assessed as early apoptotic cells at 5 uM measured after 24 hrs by Annexin V-FITC/PI staining based flow cytometry analysis (Rvb= 6.15%); format: functional
[3] = molecular target: Histone deacetylase 2 (Homo sapiens, UniProt Q92769)
Histone deacetylase 2, sequence (Q92769 whole entry): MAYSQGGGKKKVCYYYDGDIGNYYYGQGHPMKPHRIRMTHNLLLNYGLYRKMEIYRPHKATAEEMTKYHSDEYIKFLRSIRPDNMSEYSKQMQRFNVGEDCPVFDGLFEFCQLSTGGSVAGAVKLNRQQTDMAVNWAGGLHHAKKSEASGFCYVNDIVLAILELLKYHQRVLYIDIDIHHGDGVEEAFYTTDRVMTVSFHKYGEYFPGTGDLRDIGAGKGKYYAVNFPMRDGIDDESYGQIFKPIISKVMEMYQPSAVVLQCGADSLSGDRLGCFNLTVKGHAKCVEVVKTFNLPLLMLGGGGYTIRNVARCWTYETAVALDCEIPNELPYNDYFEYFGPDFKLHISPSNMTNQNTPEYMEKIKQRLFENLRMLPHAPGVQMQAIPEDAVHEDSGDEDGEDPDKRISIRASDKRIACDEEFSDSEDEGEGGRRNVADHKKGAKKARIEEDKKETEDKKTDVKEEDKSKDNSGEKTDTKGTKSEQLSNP

[4] = molecular target: T1, Serine/threonine-protein kinase mTOR (Homo sapiens, UniProt P42345); assay: Activation of mTOR in human HepG2 cells assessed as increase in p70S6K phosphorylation at 1.5 uM measured after 24 hrs by western blot analysis; format: cell-based; settings: filed as activator
[5] = system: HepG2; assay: Induction of apoptosis in human HepG2 cells assessed as early apoptotic cells at 10 uM measured after 24 hrs by Annexin V-FITC/PI staining based flow cytometry analysis (Rvb= 6.15%); format: functional
[6] = system: Hep 3B2; assay: cells; format: functional, cell-based; settings: Homo sapiens, Hep3B, 72 h
Description: Antiproliferative activity against human Hep3B cells assessed as inhibition of cell growth measured after 72 hrs by MTT assay

[7] = molecular target: T1, Serine/threonine-protein kinase mTOR; assay: Activation of mTOR in human HepG2 cells assessed as increase in 4EBP1 phosphorylation at 1.5 uM measured after 24 hrs by western blot analysis; format: cell-based; settings: filed as activator
[8] = system: HepG2; assay: Induction of cell cycle arrest in human HepG2 cells assessed as accumulation of cells in G2/M phase at 1.5 uM measured after 24 hrs by propidium iodide staining based flow cytometry analysis (Rvb= 17.8 to 18.5%); format: functional
[9] = system: HepG2; assay: Induction of cell cycle arrest in human HepG2 cells assessed as accumulation of cells in S phase at 1.5 uM measured after 24 hrs by propidium iodide staining based flow cytometry analysis (Rvb= 17 to 26.4%); format: functional
[10] = system: HepG2; assay: Induction of cell cycle arrest in human HepG2 cells assessed as accumulation of cells in G0/G1 phase at 1.5 uM measured after 24 hrs by propidium iodide staining based flow cytometry analysis (reference value: 52.7 to 63.2%); format: functional
[11] = system: HepG2; assay: Induction of cell cycle arrest in human HepG2 cells assessed as accumulation of cells in G0/G1 phase at 3 uM measured after 24 hrs by propidium iodide staining based flow cytometry analysis (reference value: 52.7 to 63.2%); format: functional
[12] = system: L02; assay: cells; format: ADME, cell-based; settings: Homo sapiens, L02, 72 h
Description: Cytotoxicity against human L02 cells assessed as reduction in cell viability measured after 72 hrs by MTT assay

[13] = molecular target: T1, Serine/threonine-protein kinase mTOR; assay: Inhibition of mTOR in human HepG2 cells assessed as reduction in phosphorylation of 4EBP1 measured after 24 hrs by western blot analysis; format: cell-based; settings: dose 1.5-6 µM
[14] = molecular target: T1, Serine/threonine-protein kinase mTOR; assay: Inhibition of mTOR in human HepG2 cells assessed as reduction in phosphorylation of p70S6K measured after 24 hrs by western blot analysis; format: cell-based; settings: dose 1.5-6 µM

For `Nc1ncnc2c1c(-c1cnc3[nH]ccc3c1)nn2CCCCCCCCC(=O)NO`, the IC50 [1] was 24.7 µM, the Activity [2] was 12% and the IC50 [3] was 0.024 µM. The Activity [4] was “Active”, the Activity [5] was 19.7% and the IC50 [6] was 8.39 µM. The Activity [7] was “Active”, the Activity [8] was 19.4% and the Activity [9] was 20.2%. For the same compound, the Activity [10] was 60.1%, the Activity [11] was 64.5% and the IC50 [12] was 35.1 µM.
With `Nc1nc2cc(-c3nn(CCCCCCC(=O)NO)c4ncnc(N)c34)ccc2o1` the inhibition [13] was “Dose-Dependent Effect”, the IC50 [1] was 11.8 µM and the Activity [2] was 15.3%. For the same compound, the IC50 [3] was 0.0032 µM, the Activity [5] was 30.4% and the IC50 [6] was 14 µM. It also gave an Activity [8] of 14.8%, an Activity [9] of 16.4% and an Activity [10] of 66.2%. The Activity [11] was 70.4%, the inhibition [14] was “Dose-Dependent Effect” and the IC50 [12] was 24.8 µM.
